Data from PubChem BioAssay (NCI).
Several values for one entry are separate records, joined by “and”; a condition that tells them apart may be missing. Equal entries are not always repeated.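 Five compound concentrations were applied to cells in 96-well plates for 48 hours; endpoints were derived by simple linear interpolation of the resulting dose-response curve. Definition used: TGI = concentration required for complete inhibition of growth.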

System: UACC-62 melanoma
Assay: NCI-60 cell line screen, 48 h

SMILES | TGI
Nc1ccc(C(=O)N2CCC[C@H]2CO)c(N)c1 | > 100 µM
On1c(-c2ccccc2)nc2ccccc2c1=S | > 100 µM
Nc1ccc(S2(c3ccc(N)cc3)C=C(c3ccccc3)C(c3ccccc3)=C2)cc1 | > 100 µM
COC(=O)C1=C(C)NC(C)=C(C(=O)OC)C1c1nc2sccn2c1[N+](=O)[O-] | > 100 µM
Nc1nc(Cl)cc(NCC2(CO)CCCC2)n1 | > 100 µM

System: OVCAR-3 ovarian
Assay: NCI-60 cell line screen, 48 h

SMILES | TGI
COc1ccc(C2OC(c3ccncc3)=NN2C)cc1OC (stereo unspecified) | > 100 µM
CC12CCC(O)CC1CCC1C2CCC2(C)C(C(=O)CC(O)C(F)(F)F)CCC12 (stereo unspecified) | > 90.9 µM
CC(C)(C)OC(=O)NCCCNC1(c2cc3ccccc3s2)CCCCC1 | 27.5 µM
COC1C=COC2(C)Oc3c(C)c(O)c4c(O)c(c(C5SCCS5)c(O)c4c3C2=O)NC(=O)C(C)=C/C=C\C(C)C2OC(C)(C)OC(C2C)C(C)C(OC(C)=O)C1C (stereo unspecified) | > 100 µM
C=CCOc1ccc(C2(O)c3ccccc3C3=NCCCN32)cc1 (stereo unspecified) | > 100 µM
CCOC(=O)NC(Nc1ccc([N+](=O)[O-])cc1)(C(F)(F)F)C(F)(F)F | > 100 µM
CCC/C(Cl)=N\OC(=O)Nc1ccc(OC(F)(F)F)cc1 | 25.2 µM
C[N+]12CCCCC1C(CN1C(=O)Cc3c4ccccc4c(c4ccccc34)CC1=O)CCC2 (stereo unspecified) | > 100 µM
CC(=O)O[C@H]1CC[C@@]2(C)C(=CC[C@H]3[C@@H]4C[C@H](N5CCOCC5)[C@H](OC(C)=O)[C@@]4(C)CC[C@@H]32)C1 | > 100 µM
CCN1CCC(O)(/C=C/c2ccc(C)cc2C)C(C(=O)/C=C/c2ccc(C)cc2C)C1 (stereo unspecified) | 7.84 µM
CC1=NNC(=O)C1C(CC(=O)c1c[nH]c2ccccc12)C(=O)O (stereo unspecified) | > 100 µM
C=C([C@@]1(O)C[C@H]2[C@H](CCC2(OC)OC)[C@@H]2c3ccccc3O[C@@H]21)[Si](C)(C)C | > 100 µM
COc1ccc2c(c1)CCN1CCc3ccccc3CC21 (stereo unspecified) | > 100 µM
CN(C)CCOC1(Cc2ccc(F)cc2)CCC(C(C)(C)C)CC1 (stereo unspecified) | 23.2 µM and 28.1 µM
Nc1ccc(C(=O)N2CCC[C@H]2CO)c(N)c1 | > 100 µM
On1c(-c2ccccc2)nc2ccccc2c1=S | > 100 µM
Nc1ccc(S2(c3ccc(N)cc3)C=C(c3ccccc3)C(c3ccccc3)=C2)cc1 | > 100 µM
COC(=O)C1=C(C)NC(C)=C(C(=O)OC)C1c1nc2sccn2c1[N+](=O)[O-] | > 100 µM
Nc1nc(Cl)cc(NCC2(CO)CCCC2)n1 | > 100 µM

System: RPMI-8226 leukemia
Assay: NCI-60 cell line screen, 48 h

SMILES | TGI
COc1ccc(C2OC(c3ccncc3)=NN2C)cc1OC (stereo unspecified) | > 100 µM
CC12CCC(O)CC1CCC1C2CCC2(C)C(C(=O)CC(O)C(F)(F)F)CCC12 (stereo unspecified) | 26.6 µM
CC(C)(C)OC(=O)NCCCNC1(c2cc3ccccc3s2)CCCCC1 | 13.7 µM
COC1C=COC2(C)Oc3c(C)c(O)c4c(O)c(c(C5SCCS5)c(O)c4c3C2=O)NC(=O)C(C)=C/C=C\C(C)C2OC(C)(C)OC(C2C)C(C)C(OC(C)=O)C1C (stereo unspecified) | > 100 µM
C=CCOc1ccc(C2(O)c3ccccc3C3=NCCCN32)cc1 (stereo unspecified) | > 78.5 µM
CCOC(=O)NC(Nc1ccc([N+](=O)[O-])cc1)(C(F)(F)F)C(F)(F)F | > 100 µM
CCC/C(Cl)=N\OC(=O)Nc1ccc(OC(F)(F)F)cc1 | 4.43 µM
C[N+]12CCCCC1C(CN1C(=O)Cc3c4ccccc4c(c4ccccc34)CC1=O)CCC2 (stereo unspecified) | > 100 µM
CC(=O)O[C@H]1CC[C@@]2(C)C(=CC[C@H]3[C@@H]4C[C@H](N5CCOCC5)[C@H](OC(C)=O)[C@@]4(C)CC[C@@H]32)C1 | > 100 µM
CCN1CCC(O)(/C=C/c2ccc(C)cc2C)C(C(=O)/C=C/c2ccc(C)cc2C)C1 (stereo unspecified) | > 21.2 µM
CC1=NNC(=O)C1C(CC(=O)c1c[nH]c2ccccc12)C(=O)O (stereo unspecified) | > 100 µM
C=C([C@@]1(O)C[C@H]2[C@H](CCC2(OC)OC)[C@@H]2c3ccccc3O[C@@H]21)[Si](C)(C)C | > 100 µM
COc1ccc2c(c1)CCN1CCc3ccccc3CC21 (stereo unspecified) | 54.9 µM
CN(C)CCOC1(Cc2ccc(F)cc2)CCC(C(C)(C)C)CC1 (stereo unspecified) | 5.09 µM and 7.79 µM
Nc1ccc(C(=O)N2CCC[C@H]2CO)c(N)c1 | > 100 µM
On1c(-c2ccccc2)nc2ccccc2c1=S | > 100 µM
Nc1ccc(S2(c3ccc(N)cc3)C=C(c3ccccc3)C(c3ccccc3)=C2)cc1 | > 100 µM
COC(=O)C1=C(C)NC(C)=C(C(=O)OC)C1c1nc2sccn2c1[N+](=O)[O-] | > 100 µM
Nc1nc(Cl)cc(NCC2(CO)CCCC2)n1 | > 100 µM

System: SK-OV-3 ovarian
Assay: NCI-60 cell line screen, 48 h

SMILES | TGI
COc1ccc(C2OC(c3ccncc3)=NN2C)cc1OC (stereo unspecified) | > 100 µM
CC12CCC(O)CC1CCC1C2CCC2(C)C(C(=O)CC(O)C(F)(F)F)CCC12 (stereo unspecified) | 79.5 µM
CC(C)(C)OC(=O)NCCCNC1(c2cc3ccccc3s2)CCCCC1 | 26.2 µM
COC1C=COC2(C)Oc3c(C)c(O)c4c(O)c(c(C5SCCS5)c(O)c4c3C2=O)NC(=O)C(C)=C/C=C\C(C)C2OC(C)(C)OC(C2C)C(C)C(OC(C)=O)C1C (stereo unspecified) | > 100 µM
C=CCOc1ccc(C2(O)c3ccccc3C3=NCCCN32)cc1 (stereo unspecified) | > 100 µM
CCOC(=O)NC(Nc1ccc([N+](=O)[O-])cc1)(C(F)(F)F)C(F)(F)F | > 100 µM
CCC/C(Cl)=N\OC(=O)Nc1ccc(OC(F)(F)F)cc1 | 34.2 µM
C[N+]12CCCCC1C(CN1C(=O)Cc3c4ccccc4c(c4ccccc34)CC1=O)CCC2 (stereo unspecified) | > 100 µM
CC(=O)O[C@H]1CC[C@@]2(C)C(=CC[C@H]3[C@@H]4C[C@H](N5CCOCC5)[C@H](OC(C)=O)[C@@]4(C)CC[C@@H]32)C1 | > 100 µM
CCN1CCC(O)(/C=C/c2ccc(C)cc2C)C(C(=O)/C=C/c2ccc(C)cc2C)C1 (stereo unspecified) | 26.7 µM
CC1=NNC(=O)C1C(CC(=O)c1c[nH]c2ccccc12)C(=O)O (stereo unspecified) | > 100 µM
C=C([C@@]1(O)C[C@H]2[C@H](CCC2(OC)OC)[C@@H]2c3ccccc3O[C@@H]21)[Si](C)(C)C | > 100 µM
COc1ccc2c(c1)CCN1CCc3ccccc3CC21 (stereo unspecified) | > 100 µM
CN(C)CCOC1(Cc2ccc(F)cc2)CCC(C(C)(C)C)CC1 (stereo unspecified) | 27.7 µM and 28.7 µM
Nc1ccc(C(=O)N2CCC[C@H]2CO)c(N)c1 | > 100 µM
On1c(-c2ccccc2)nc2ccccc2c1=S | > 100 µM
Nc1ccc(S2(c3ccc(N)cc3)C=C(c3ccccc3)C(c3ccccc3)=C2)cc1 | > 59.7 µM
COC(=O)C1=C(C)NC(C)=C(C(=O)OC)C1c1nc2sccn2c1[N+](=O)[O-] | > 100 µM
Nc1nc(Cl)cc(NCC2(CO)CCCC2)n1 | > 100 µM

System: TK-10 renal
Assay: NCI-60 cell line screen, 48 h

SMILES | TGI
COc1ccc(C2OC(c3ccncc3)=NN2C)cc1OC (stereo unspecified) | > 100 µM
CC12CCC(O)CC1CCC1C2CCC2(C)C(C(=O)CC(O)C(F)(F)F)CCC12 (stereo unspecified) | > 100 µM
CC(C)(C)OC(=O)NCCCNC1(c2cc3ccccc3s2)CCCCC1 | 32 µM
COC1C=COC2(C)Oc3c(C)c(O)c4c(O)c(c(C5SCCS5)c(O)c4c3C2=O)NC(=O)C(C)=C/C=C\C(C)C2OC(C)(C)OC(C2C)C(C)C(OC(C)=O)C1C (stereo unspecified) | 24.8 µM
C=CCOc1ccc(C2(O)c3ccccc3C3=NCCCN32)cc1 (stereo unspecified) | > 100 µM
CCOC(=O)NC(Nc1ccc([N+](=O)[O-])cc1)(C(F)(F)F)C(F)(F)F | > 100 µM
CCC/C(Cl)=N\OC(=O)Nc1ccc(OC(F)(F)F)cc1 | 12.4 µM
C[N+]12CCCCC1C(CN1C(=O)Cc3c4ccccc4c(c4ccccc34)CC1=O)CCC2 (stereo unspecified) | > 100 µM
CC(=O)O[C@H]1CC[C@@]2(C)C(=CC[C@H]3[C@@H]4C[C@H](N5CCOCC5)[C@H](OC(C)=O)[C@@]4(C)CC[C@@H]32)C1 | > 100 µM
CCN1CCC(O)(/C=C/c2ccc(C)cc2C)C(C(=O)/C=C/c2ccc(C)cc2C)C1 (stereo unspecified) | 3.41 µM
CC1=NNC(=O)C1C(CC(=O)c1c[nH]c2ccccc12)C(=O)O (stereo unspecified) | > 100 µM
C=C([C@@]1(O)C[C@H]2[C@H](CCC2(OC)OC)[C@@H]2c3ccccc3O[C@@H]21)[Si](C)(C)C | > 100 µM
COc1ccc2c(c1)CCN1CCc3ccccc3CC21 (stereo unspecified) | > 100 µM
CN(C)CCOC1(Cc2ccc(F)cc2)CCC(C(C)(C)C)CC1 (stereo unspecified) | 20.5 µM and 24.7 µM
Nc1ccc(C(=O)N2CCC[C@H]2CO)c(N)c1 | > 100 µM
On1c(-c2ccccc2)nc2ccccc2c1=S | > 100 µM
Nc1ccc(S2(c3ccc(N)cc3)C=C(c3ccccc3)C(c3ccccc3)=C2)cc1 | > 85.5 µM
COC(=O)C1=C(C)NC(C)=C(C(=O)OC)C1c1nc2sccn2c1[N+](=O)[O-] | > 100 µM
Nc1nc(Cl)cc(NCC2(CO)CCCC2)n1 | > 100 µM

System: 786-0 renal
Assay: NCI-60 cell line screen, 48 h

SMILES | TGI
COc1ccc(C2OC(c3ccncc3)=NN2C)cc1OC (stereo unspecified) | > 100 µM
CC12CCC(O)CC1CCC1C2CCC2(C)C(C(=O)CC(O)C(F)(F)F)CCC12 (stereo unspecified) | 21.6 µM
CC(C)(C)OC(=O)NCCCNC1(c2cc3ccccc3s2)CCCCC1 | 28.8 µM
COC1C=COC2(C)Oc3c(C)c(O)c4c(O)c(c(C5SCCS5)c(O)c4c3C2=O)NC(=O)C(C)=C/C=C\C(C)C2OC(C)(C)OC(C2C)C(C)C(OC(C)=O)C1C (stereo unspecified) | 44 µM
C=CCOc1ccc(C2(O)c3ccccc3C3=NCCCN32)cc1 (stereo unspecified) | > 78.6 µM
CCOC(=O)NC(Nc1ccc([N+](=O)[O-])cc1)(C(F)(F)F)C(F)(F)F | > 100 µM
CCC/C(Cl)=N\OC(=O)Nc1ccc(OC(F)(F)F)cc1 | 26.1 µM
C[N+]12CCCCC1C(CN1C(=O)Cc3c4ccccc4c(c4ccccc34)CC1=O)CCC2 (stereo unspecified) | > 100 µM
CC(=O)O[C@H]1CC[C@@]2(C)C(=CC[C@H]3[C@@H]4C[C@H](N5CCOCC5)[C@H](OC(C)=O)[C@@]4(C)CC[C@@H]32)C1 | > 100 µM
CCN1CCC(O)(/C=C/c2ccc(C)cc2C)C(C(=O)/C=C/c2ccc(C)cc2C)C1 (stereo unspecified) | 3.32 µM
